Measured values from US20230250433A1, “METHODS AND COMPOSITIONS FOR TREATMENT OF APC-DEFICIENT CANCER” (Board of Regents, The University of Texas System, priority 2020, published 2023).

Legend:
[1] = system: LS180 and HT-29 cell lines; test: Colony formation assay with Gas6 and R428; assay type: cell-based, human; details: Gas6 25 ng, 36 hr
Text: (§1) The red box indicates Axl. […] Six replicates per group. two-tailed t-test. *P<0.05. […] Epithelial cells are stained with EpCam and indicated by GFP. X63 magnification. […] Total flux measurement of at the end point. **P<0.01. two-tailed t-test. […] Total flux measurement of tumors was done at the end point. **P<0.01. two-tailed t-test.
(§2) Gas6 is a ligand of Axl and is secreted mainly by tumor-associated macrophages in the TME (Loges et al., 2010), raising the possibility that macrophage-derived Gas6 might activate Axl to support the growth of APC-deficient cancer cells.
(§3) Colorectal cancer cell proliferation in vitro was assayed through colony formation. 1×10^3 cells were seeded in each well of 6-well plates and cultured for 5-7 days. At the end point, cells were fixed and stained with 0.5% crystal violet in 25% methanol for 1 hr. These studies were performed in triplicate.

[2] = system: BMDM; test: RT-qPCR analysis of Gas6 expression in BMDM; assay type: cell-based, mouse; details: Kyn 1 mM, CXCL5 50 ng, Gas6 25 ng, 24 hr
Protocol: as §1
To evaluate whether secreted factors from cancer cells might upregulate Gas6 expression in macrophages, BMDMs were incubated with conditioned media from MC38 cell lines. […] (FIG. 15H). Finally, to validate the roles of Gas6 in promoting tumor growth in vivo, CT26 cell lines and two independent Raw 264.7 shGas6 cell lines were co-injected into syngeneic Balb/CJ mice (FIG. 15I).
(§4) RNA was isolated from cells using Trizol (Invitrogen) following the manufacturer's instructions. RNA (200-500 ng) was first treated with RNase-free DNase I using the DNA-free kit (Ambion) to remove all genomic DNA, and then reverse-transcribed into cDNA using an ABI High Capacity cDNA RT Kit (Invitrogen). The cDNA was analyzed using real-time quantitative PCR (SYBR Green, Invitrogen) with an Applied Biosystems 7900 Sequence Detection System. Each reaction was performed in triplicate. The expression of each gene was normalized by that of mouse Actin or human GAPDH.

[3] = molecular target: T1, Axl (Mus musculus, UniProt Q00993); test: Immunoblots for Axl and phospho-Axl; assay type: cell-based; details: APC-WT and APC-KO MC38 cells; R428 0.2 μM 24 h; rmGAS6 24 h
T1 construct: immunoblots for Axl and phospho-Axl in APC-WT and APC-KO MC38 cells after R428 treatment (0.2 μM, 24 h); endogenous in cells; host or cells: MC38 mouse colorectal cancer cells, APC-WT and isogenic APC-KO
T1 sequence (Q00993 19-888): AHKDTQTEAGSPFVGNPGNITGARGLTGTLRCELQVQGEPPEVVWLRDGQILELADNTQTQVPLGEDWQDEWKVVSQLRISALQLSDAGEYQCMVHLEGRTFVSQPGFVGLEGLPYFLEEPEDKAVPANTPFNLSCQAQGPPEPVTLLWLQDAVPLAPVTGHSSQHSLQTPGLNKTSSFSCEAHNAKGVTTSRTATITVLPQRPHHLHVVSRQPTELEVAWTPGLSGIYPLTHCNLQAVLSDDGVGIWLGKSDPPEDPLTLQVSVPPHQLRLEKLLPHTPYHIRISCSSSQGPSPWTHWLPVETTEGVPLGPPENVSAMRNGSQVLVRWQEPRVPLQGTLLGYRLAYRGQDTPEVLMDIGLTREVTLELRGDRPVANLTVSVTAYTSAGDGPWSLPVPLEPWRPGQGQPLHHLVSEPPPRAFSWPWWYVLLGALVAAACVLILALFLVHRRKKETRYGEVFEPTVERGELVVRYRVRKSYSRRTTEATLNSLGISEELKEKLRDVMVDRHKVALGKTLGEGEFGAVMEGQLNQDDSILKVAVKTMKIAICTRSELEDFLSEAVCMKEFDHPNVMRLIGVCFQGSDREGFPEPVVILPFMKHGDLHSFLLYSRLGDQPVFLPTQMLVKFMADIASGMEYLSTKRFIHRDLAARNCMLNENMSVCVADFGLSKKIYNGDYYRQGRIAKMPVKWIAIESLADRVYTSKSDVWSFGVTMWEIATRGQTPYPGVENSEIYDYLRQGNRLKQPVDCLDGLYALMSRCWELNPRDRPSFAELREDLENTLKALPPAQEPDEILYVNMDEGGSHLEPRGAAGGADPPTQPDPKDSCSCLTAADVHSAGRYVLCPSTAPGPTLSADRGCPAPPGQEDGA
Text: as §1, §2
(§5) Cell lysates were prepared with RIPA lysis buffer (Roche) with protease inhibitor […] Immunoblotting was performed following standard protocol. Antibodies were purchased from the indicated companies.

[4] = system: Caco-2, DLD-1, and HCT-15 cell lines; test: Immunoblot for TDO2 and β-catenin in CRC cell lines treated with XAV-939; assay type: cell-based, human; details: XAV-939 in a dose-dependent manner; WNT activity indicated by reduced level of β-catenin
Protocol: The motif sequence is conserved in human and mouse genes. […] GAPDH as a negative control and MYC and AXIN2 as positive controls. […] FIGS. 3K-3M show immunoblot for TDO2 and β-catenin in DLD-1 cells (FIG. 3K), Caco-2 cells (FIG. 3L), and HCT-15 cells (FIG. 3M) treated with XAV-939 in a dose-dependent manner.
Thus, APC loss induced activation of the WNT-betacatenin-TCF4 pathway resulting in TCF4-mediated upregulation of TDO2 gene transcription.
as §5

[5] = system: APC-WT and APC-KO MC38 cells; test: Cell viability assay with STF-31; assay type: cell-based, mouse; details: STF-31 24 hr, dose-dependent
[6] = system: APC-KO MC38 orthotopic tumors; test: Survival of C57BL/6J mice orthotopically implanted with APC-KO MC38 cells; assay type: in vivo, mouse; details: 100 mg/kg twice a day by oral gavage from day 5 post-injection
Text: (§6) Induction of shTDO2 is indicated by GFP (highlighted with arrows). X63 magnification. […] Dox food was provided at day 5 after injection to induced TDO2 knockdown in vivo (n=5 per group). […] Scale bar, 100μm. […] Dox food was applied at day 5 post-orthotopic injection to induce TDO2 knockdown in vivo (ishTDO2 APC-WT MC38, n=5, ishTDO2 APC-WT+Dox MC38 and ishTDO2 APC-KO MC38, n=6, ishTDO2 APC-KO MC38+Dox, n=7). n.s.P>0.05, **P<0.01, ***P<0.001. two-tailed t-test. […] Dox food was applied at day 5 post-orthotopic injection to induce TDO2 knockdown in vivo (n=8 per group). n.s.P>0.05, **P<0.01, ***P<0.001. two-tailed t-test. FIGS. 4N and 4O show survival curves of C57BL/6J mice orthotopically implanted with APC-WT and APC-KO MC38 cell lines ([…]) treated with TDO2 inhibitor (FIG. 4N) or Epacadostat (FIG. 4O). TDO2 inhibitor and Epacadostat treatment (100 mg/kg) was initiated at day 5 post-injection twice a day by oral gavage. n.s.P>0.05, *P<0.05, ***P<0.001. Log-rank (Mantel-Cox) test. […] Scale bars, ×10 (200 μm).
(§7) The inventors synthesized the TDO2 inhibitor PF06845102/EOS200809 (“TDO2i”), which has been documented to inhibit TDO2 activity in vivo (Schramme et al., Cancer Immunol Res. 2020 January; 8(1):32-45; incorporated herein by reference in its entirety) and administrated the drug by oral gavage to mice bearing APC-WT or APC-KO MC38 orthotopic tumors. […]

[7] = system: APC-WT MC38 orthotopic tumors; test: Survival of C57BL/6J mice orthotopically implanted with APC-WT MC38 cells; assay type: in vivo, mouse; details: 100 mg/kg twice a day by oral gavage from day 5 post-injection
Text: as §6, §7

[8] = system: APC-WT and APC-KO MC38 cell lines; test: Crystal violet staining of APC-WT and APC-KO MC38 cell lines after 680C91; assay type: cell-based, mouse; details: APC-KO vs APC-WT MC38, dose-dependent, 48 hr
[9] = system: APC intact cells including CCD-841-CoN cells; test: Crystal violet staining after 680C91 treatment, APC intact cells; assay type: cell-based, human; details: 680C91 dose-dependent, 48 hr, normal colon epithelial cells included
[10] = system: APC deficient cell lines; test: Crystal violet staining after 680C91 treatment, APC deficient cell lines; assay type: cell-based, human; details: 680C91 dose-dependent, 48 hr
[11] = system: APC-KO MC38 cells; test: Cell death (caspase-3 assay, colony formation) with 680C91 alone and 680C91/Kyn; assay type: cell-based, mouse
Protocol: (§8) Normalized enrichment score (NES) and nominal P value are shown. […] The P value and R-square value are shown. […] Representative images of triplicate studies are shown. Scale bar, 100 μm. […] Dox food was applied at day 5 post-orthotopic injection to induce TDO2 knockdown in vivo (shControl, n=7, Dox, n=8, shAhR #1, #2, n=7). ***P<0.001. two-tailed t-test.
(§9) To assess the roles of TDO2-Kyn-AhR axis in cancer relevant processes, colony formation assays were performed using the APC-KO MC38 ishTDO2 cell lines and APC-KO MC38 shAhR cell lines. […] Thus, the TDO2-Kyn-Ahr axis supports APC-null cancer cell proliferation and survival and its tumorigenic potential.
as §5, §3

[12] = system: BMDM; test: RT-qPCR of M2 macrophage signature genes in BMDM; assay type: cell-based, mouse; details: CXCL5 50 ng, Kyn 1 mM, 24 hr
Protocol: Scale bars, 50μm. […] Scale bars, 100 μm. […] (isTDO2 and isTDO2/shCXCL5 #2 groups, n=7, isTDO2/shCXCL5 #3, n=8). ****P<0.0001. two-tailed t-test. […] (shControl and shCXCL5 #2 groups, n=7, shCXCL5 #3, n=8). ****P<0.0001. two-tailed t-test.
as §4

[13] = system: APC-KO MC38 cells; test: Colony formation assay of TDO2- or AhR-depleted cells with Kyn; assay type: cell-based, mouse; details: Dox/Kyn co-treatment
Protocol: as §8, §9, §3

[14] = system: iKAP cell lysates; test: Cleaved Caspase-3 immunoblot in iKAP cells, 680C91 alone and 680C91/Kyn; assay type: cell-based, mouse; details: 680C91/Kyn vs 680C91 alone
Protocol: as §8, §9, §5

[15] = system: Raw264.7; test: Transwell migration assay of macrophages in conditioned media; assay type: cell-based, mouse; details: co-treatment with CXCL5; SX-682 1 μM, 36 hr
Protocol: Two-way ANOVA analysis. […] Dox food was applied at day 5 post-orthotopic injection to induce TDO2 knockdown in vivo. n=4 per group. n.s.P>0.05, *P<0.05, […], ****P<0.0001. two-tailed t-test. […] FIGS. 12D and 12E show quantification of macrophages (F4/80+; FIG. 12D) and M2 macrophages (CD206+; FIG. 12E) in tumors shown in FIG. 12C. CyTOF data analyzed by FlowJo. Data represent mean±s.d., n=3 per group. *P<0.05, **P<0.01. two-tailed t-test. […] Recombinant CXCL5 protein (50 ng) and SX-682 (1 μM) were added to harvested condition media for 36 hr. Scale bar, 100 μm. n=3 biological replicates. Quantification is shown in lower panel. n.s. P>0.05, ***P<0.001, ****P<0.0001. two-tailed t-test. […] Clondronate liposomes or control encapsome liposomes were given intraperitoneally (100 μl) at day 2 post-orthotopic injection and three times a week. […]
Macrophages (1×10^4 for Raw264.7 and BMDM) were suspended in serum-free culture medium and seeded into 24-well Transwell inserts ([…]). […] After 24 h, the migrated macrophages were fixed and stained with crystal violet (0.05%, sigma), and then counted as cells per field of view under microscope or measured as OD590 nm (expressed as migration index) after crystal violet was dissolved.

rmGas6: mouse recombinant Gas6, ligand of Axl
cancer cell growth in vitro [1]: promoted cancer cell growth | Gas6 expression [2]: increased Gas6 expression | Axl phosphorylation [3]: activated Axl

Oc1nc(-c2ccc(C(F)(F)F)cc2)nc2c1CSCC2 [XAV-939]
TDO2 expression [4]: TDO2 expression was decreased

CC(C)(C)c1ccc(S(=O)(=O)NCc2ccc(C(=O)Nc3cccnc3)cc2)cc1 [STF-31]
sensitivity of APC-KO vs APC-WT MC38 cells [5]: higher sensitivity

NS(=O)(=O)NCCNc1nonc1C(=NO)Nc1ccc(F)c(Br)c1 [Epacadostat]
survival of mice bearing APC-KO MC38 tumors [6]: did not exhibit anti-tumor effects | survival of mice bearing APC-WT MC38 tumors [7]: did not exhibit anti-tumor effects

Fc1ccc2c(/C=C/c3cccnc3)c[nH]c2c1 [680C91]
sensitivity of APC depleted cells to TDO2 inhibition [8]: higher sensitivity to TDO2 inhibition | growth and survival [9]: but not APC intact cells | growth and survival [10]: impaired the growth and survival | cell death indicated by caspase-3 assay ([11]; 680C91 alone): increased cell death

Nc1ccccc1C(=O)CC(N)C(=O)O (centres unmarked) [Kyn, kynurenine]
Gas6 expression [2]: increased Gas6 expression | M2 macrophage markers [12]: M2 macrophage markers increased | effect of Kyn on reduced colony formation after TDO2 and AhR depletion [13]: rescued by Kyn treatment | cell death in iKAP model system [14]: decreased cell death | effect of Kyn on 680C91-induced cell death ([11]; 680C91/Kyn co-treatment): rescued by Kyn supplementation

O=C(Nc1ccc(F)cc1)c1cnc(SCc2cc(OC(F)(F)F)ccc2B(O)O)nc1 [CXCR1/2 inhibitor]
effect on CXCL5 rescue of macrophage recruitment [15]: abrogated the rescue by CXCL5 supplementation
